Source: PubChem BioAssay AID330 (DTP/NCI, 2004)
Values joined by “and” are separate entries in the source; they are usually repeats but may differ in a detail not shown here. Equal values may be shown once. Inconclusive results and toxic doses are left out.

Test system: P388 leukemia ip, CD2F1 mice, survival T/C
Assay: NCI In Vivo Anticancer Drug Screen. Data for tumor model P388 Leukemia (intraperitoneal) in CD2F1 (CDF1) mice
Conditions: endpoint: median survival time, higher = longer survival
Method in brief: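 Mice carrying the transplanted tumor received test compound or vehicle. Survival was recorded in each group, and the value is the treated-group measurement divided by that of the vehicle-treated control group.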

[1] = dose: 25.0 mg/kg/injection, schedule: Q04DX003 (ip), vehicle: Klucel (hydroxypropylcellulose) (HPC)
[2] = dose: 50.0 mg/kg/injection, schedule: Q04DX003 (ip), vehicle: Klucel (hydroxypropylcellulose) (HPC)
[3] = dose: 100.0 mg/kg/injection, schedule: Q04DX003 (ip), vehicle: Klucel (hydroxypropylcellulose) (HPC)
[4] = dose: 100.0 mg/kg/injection, schedule: Q01DX009 (ip), vehicle: saline with Tween-80
[5] = dose: 200.0 mg/kg/injection, schedule: Q01DX009 (ip), vehicle: saline with Tween-80
[6] = dose: 100.0 mg/kg/injection, schedule: Q01DX009 (ip), vehicle: Klucel (hydroxypropylcellulose) (HPC)
[7] = dose: 200.0 mg/kg/injection, schedule: Q01DX009 (ip), vehicle: Klucel (hydroxypropylcellulose) (HPC)
[8] = dose: 200.0 mg/kg/injection, schedule: Q04DX003 (ip), vehicle: Klucel (hydroxypropylcellulose) (HPC)
[9] = dose: 400.0 mg/kg/injection, schedule: Q04DX003 (ip), vehicle: Klucel (hydroxypropylcellulose) (HPC)
[10] = dose: 50.0 mg/kg/injection, schedule: Q01DX005 (ip), vehicle: saline with Tween-80
[11] = dose: 100.0 mg/kg/injection, schedule: Q01DX005 (ip), vehicle: saline with Tween-80
[12] = dose: 50.0 mg/kg/injection, schedule: Q01DX009 (ip), vehicle: saline
[13] = dose: 100.0 mg/kg/injection, schedule: Q01DX009 (ip), vehicle: saline

CC1CCC(NC(=O)N(CCCl)N=O)CC1 (stereo not given)
T/C (dose: 1.0 mg/kg/injection, schedule: Q01DX009 (ip), vehicle: saline sonified): 112 % of control
T/C (dose: 2.0 mg/kg/injection, schedule: Q01DX009 (ip), vehicle: saline with Tween-80): 122 % of control
T/C (dose: 3.0 mg/kg/injection, schedule: Q04DX003 (ip), vehicle: other): 163 % of control
T/C (dose: 3.75 mg/kg/injection, schedule: Q04DX003 (ip), vehicle: other): 163 % of control
T/C (dose: 4.0 mg/kg/injection, schedule: Q01DX009 (ip), vehicle: saline sonified): 166 % of control
T/C (dose: 4.0 mg/kg/injection, schedule: Q01DX009 (ip), vehicle: saline with Tween-80): 154 % of control
T/C (dose: 5.0 mg/kg/injection, schedule: Q04DX003 (ip), vehicle: other): 238 % of control
T/C (dose: 6.0 mg/kg/injection, schedule: Q04DX003 (ip), vehicle: other): 247 % of control
T/C (dose: 7.5 mg/kg/injection, schedule: Q04DX003 (ip), vehicle: other): 225 % of control
T/C (dose: 8.0 mg/kg/injection, schedule: Q01DX009 (ip), vehicle: saline sonified): 100 % of control
T/C (dose: 8.0 mg/kg/injection, schedule: Q01DX009 (ip), vehicle: saline with Tween-80): 190 % of control
T/C (dose: 10.0 mg/kg/injection, schedule: Q04DX003 (ip), vehicle: other): 160 % of control
T/C (dose: 10.0 mg/kg/injection, schedule: Q04DX003 (ip), vehicle: saline with Tween-80): 108 % of control and 120 % of control
T/C (dose: 12.0 mg/kg/injection, schedule: Q04DX003 (ip), vehicle: other): 238 % of control
T/C (dose: 15.0 mg/kg/injection, schedule: Q04DX003 (ip), vehicle: other): 441 % of control
T/C (dose: 15.0 mg/kg/injection, schedule: Q04DX003 (ip), vehicle: saline with Tween-80): 218 % of control
T/C (dose: 16.0 mg/kg/injection, schedule: Q01DX009 (ip), vehicle: saline with Tween-80): 109 % of control
T/C (dose: 20.0 mg/kg/injection, schedule: Q04DX003 (ip), vehicle: other): 231 % of control
T/C (dose: 20.0 mg/kg/injection, schedule: Q04DX003 (ip), vehicle: saline with Tween-80): 227 % of control and 250 % of control
T/C (dose: 24.0 mg/kg/injection, schedule: Q04DX003 (ip), vehicle: other): 110 % of control
T/C (dose: 30.0 mg/kg/injection, schedule: Q04DX003 (ip), vehicle: other): 156 % of control

C[N+](C)(Cc1ccccc1)[N-]C(=N)c1ccccc1
T/C (dose: 12.5 mg/kg/injection, schedule: Q04DX003 (ip), vehicle: Klucel (hydroxypropylcellulose) (HPC)): 105 % of control
T/C [1]: 101 % of control
T/C [2]: 100 % of control
T/C [3]: 103 % of control

CC(C(/C=N/NC(N)=S)=N/NC(N)=S)N1C(=O)c2ccccc2C1=O (stereo not given)
T/C (dose: 60.0 mg/kg/injection, schedule: Q01DX005 (ip), vehicle: saline with Tween-80): 97 % of control
T/C (dose: 120.0 mg/kg/injection, schedule: Q01DX005 (ip), vehicle: saline with Tween-80): 94 % of control
T/C (dose: 240.0 mg/kg/injection, schedule: Q01DX005 (ip), vehicle: saline with Tween-80): 88 % of control

COC(=O)c1ccccc1S(=O)(=O)NC(C)C
T/C (dose: 50.0 mg/kg/injection, schedule: Q01DX005 (ip), vehicle: Klucel (hydroxypropylcellulose) (HPC)): 99 % of control
T/C (dose: 100.0 mg/kg/injection, schedule: Q01DX005 (ip), vehicle: Klucel (hydroxypropylcellulose) (HPC)): 96 % of control
T/C (dose: 200.0 mg/kg/injection, schedule: Q01DX005 (ip), vehicle: Klucel (hydroxypropylcellulose) (HPC)): 105 % of control

O=C(N/N=C/c1ccccc1O)N/N=C/c1ccccc1O
T/C (dose: 50.0 mg/kg/injection, schedule: Q01DX009 (ip), vehicle: saline with Tween-80): 96 % of control
T/C [4]: 96 % of control
T/C [5]: 96 % of control
T/C (dose: 400.0 mg/kg/injection, schedule: Q01DX009 (ip), vehicle: saline with Tween-80): 87 % of control

Cc1[nH]c(=O)[nH]c(=O)c1/C=C/C(=O)NC(CO)CSCc1ccccc1 (stereo not given)
T/C (dose: 6.25 mg/kg/injection, schedule: Q01DX009 (ip), vehicle: other): 94 % of control
T/C (dose: 12.5 mg/kg/injection, schedule: Q01DX009 (ip), vehicle: other): 94 % of control
T/C (dose: 25.0 mg/kg/injection, schedule: Q01DX009 (ip), vehicle: other): 94 % of control
T/C (dose: 50.0 mg/kg/injection, schedule: Q01DX009 (ip), vehicle: other): 88 % of control
T/C (dose: 100.0 mg/kg/injection, schedule: Q01DX009 (ip), vehicle: other): 87 % of control
T/C (dose: 200.0 mg/kg/injection, schedule: Q01DX009 (ip), vehicle: other): 98 % of control
T/C (dose: 400.0 mg/kg/injection, schedule: Q01DX009 (ip), vehicle: other): 95 % of control

c1ccc(-c2nc3ccccc3[nH]2)nc1
T/C [1]: 101 % of control
T/C [2]: 96 % of control
T/C [6]: 115 % of control
T/C [3]: 101 % of control
T/C [7]: 99 % of control
T/C [8]: 93 % of control
T/C (dose: 400.0 mg/kg/injection, schedule: Q01DX009 (ip), vehicle: Klucel (hydroxypropylcellulose) (HPC)): 101 % of control

CN(Cc1cnc2nc(N)nc(N)c2n1)c1ccc(C(=O)NC(CCC(=O)OC(C)(C)C)C(=O)O)cc1 (stereo not given)
T/C (dose: 5.0 mg/kg/injection, schedule: Q03HX024 (ip), vehicle: sodium bicarbonate): 156 % of control
T/C (dose: 10.0 mg/kg/injection, schedule: Q03HX024 (ip), vehicle: sodium bicarbonate): 182 % of control
T/C (dose: 20.0 mg/kg/injection, schedule: Q03HX024 (ip), vehicle: sodium bicarbonate): 230 % of control
T/C (dose: 20.0 mg/kg/injection, schedule: Q04DX003 (ip), vehicle: sodium bicarbonate): 122 % of control
T/C (dose: 40.0 mg/kg/injection, schedule: Q03HX024 (ip), vehicle: sodium bicarbonate): 269 % of control
T/C (dose: 80.0 mg/kg/injection, schedule: Q03HX024 (ip), vehicle: sodium bicarbonate): 153 % of control

CC(=O)OCCC/C(=C/c1cc2ccccc2c2ccccc12)[N+](=O)[O-]
T/C [3]: 104 % of control
T/C [8]: 109 % of control
T/C [9]: 109 % of control

O=C1CC(=O)N(CCc2ccncc2)C(=O)N1CCc1ccncc1
T/C (dose: 50.0 mg/kg/injection, schedule: Q01DX005 (ip), vehicle: saline): 106 % of control
T/C (dose: 100.0 mg/kg/injection, schedule: Q01DX005 (ip), vehicle: saline): 106 % of control

COc1cc([N+](=O)[O-])cc2c1OC1(N=C2)Sc2ccccc2N1C (stereo not given)
T/C (dose: 100.0 mg/kg/injection, schedule: Q01DX001 (ip), vehicle: saline): 103 % of control
T/C (dose: 200.0 mg/kg/injection, schedule: Q01DX001 (ip), vehicle: saline): 100 % of control
T/C (dose: 400.0 mg/kg/injection, schedule: Q01DX001 (ip), vehicle: saline): 103 % of control

COc1cc(OC)c2c(c1)OC(=O)C(C(C)=O)C2 (stereo not given)
T/C [10]: 96 % of control
T/C [11]: 112 % of control

Cc1ccc(S(=O)(=O)N=P(c2ccccc2)(c2ccccc2)c2ccccc2)cc1
T/C [4]: 91 % of control
T/C [5]: 95 % of control

CC(=O)NC(Cc1cc(I)c(O)c(I)c1)C(=O)O (stereo not given)
T/C (dose: 25.0 mg/kg/injection, schedule: Q01DX009 (ip), vehicle: Klucel (hydroxypropylcellulose) (HPC)): 94 % of control
T/C (dose: 50.0 mg/kg/injection, schedule: Q01DX009 (ip), vehicle: Klucel (hydroxypropylcellulose) (HPC)): 88 % of control
T/C [12]: 100 % of control
T/C [6]: 94 % of control
T/C [13]: 107 % of control
T/C [7]: 94 % of control
T/C (dose: 200.0 mg/kg/injection, schedule: Q01DX009 (ip), vehicle: saline): 105 % of control

CCOC(=O)c1ccc(NC(=O)CSc2nc3ccccc3o2)cc1
T/C [12]: 114 % of control
T/C [13]: 93 % of control

O=C(Nc1ccccc1)C1(C(=O)Nc2ccccc2)SSC(C(=O)Nc2ccccc2)(C(=O)Nc2ccccc2)SS1
T/C [10]: 107 % of control
T/C [11]: 96 % of control
T/C (dose: 200.0 mg/kg/injection, schedule: Q01DX005 (ip), vehicle: saline with Tween-80): 89 % of control

NS(=O)(=O)c1ccc(Nc2c3ccccc3nc3ccccc23)cc1
T/C [3]: 110 % of control and 86 % of control (2×)
T/C (dose: 118.0 mg/kg/injection, schedule: Q04DX003 (ip), vehicle: Klucel (hydroxypropylcellulose) (HPC)): 93 % of control
T/C [8]: 118 % of control and 90 % of control
T/C (dose: 236.0 mg/kg/injection, schedule: Q04DX003 (ip), vehicle: Klucel (hydroxypropylcellulose) (HPC)): 99 % of control
T/C [9]: 120 % of control and 88 % of control and 95 % of control
T/C (dose: 472.0 mg/kg/injection, schedule: Q04DX003 (ip), vehicle: Klucel (hydroxypropylcellulose) (HPC)): 99 % of control
